Experiments:
[1] = test system: HIV-1; conditions: incubation up to week 28; cited from earlier work
[2] = Day 20; rank order of treatment groups (mg bid)
Method: Twenty-four subjects were enrolled [placebo (n=2), AZT 200 mg (n=2), AZT 300 mg (n=2), DAPD 500 mg (n=6), DAPD/AZT 200 mg (n=6), and DAPD/AZT 300 mg (n=6)] and treated for 10 days. Hematological indices including hemoglobin (g/dl) and mean corpuscular volume (MCV, femtoliters) were measured at Screening, Day 1 prior to receiving treatment and Days 5, 10 and 20.

[3] = biological target: T1, TK1 (Homo sapiens, UniProt P04183); experiment: Phosphorylation of AZT to AZT-MP by thymidine kinase; type: biochemical; conditions: activated PBM cells
T1 sequence (P04183 1-234): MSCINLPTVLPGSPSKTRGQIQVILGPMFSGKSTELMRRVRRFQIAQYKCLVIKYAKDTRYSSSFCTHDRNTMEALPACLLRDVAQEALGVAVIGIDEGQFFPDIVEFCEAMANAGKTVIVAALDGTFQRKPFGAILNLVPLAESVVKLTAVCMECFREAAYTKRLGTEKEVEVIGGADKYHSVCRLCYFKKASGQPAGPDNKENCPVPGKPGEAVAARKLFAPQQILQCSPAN
Text: (§1) The initial intracellular phosphorylation step of AZT is catalyzed by thymidine kinase (TK). The most likely enzyme for monophosphorylation to AZT-MP is TK1, which is located primarily in the cytosol of cells in S-phase. […] Since the initial phosphorylation step of AZT to AZT-MP remains approximately linear with dose (5, 22), the Vmax,TK1 was assumed constant between individuals. […] The maximal rates of phosphorylation to AZT-MP and AZT-DP (Vmax,AZT-MP and Vmax,ThymK, respectively) in activated PBM cells were calculated using previously published enzyme kinetics measurements from a cohort of HIV-1 infected individuals who were not previously treated with AZT (36). […] The calculation assumed a volume of 0.21 μl/10^6, corresponding to a protein content of 0.12 mg (3, 33). The final phosphorylation step to active AZT-TP is catalyzed by nucleoside diphosphate kinase and is not rate limiting under physiological conditions. […] Therefore, the conversion rate of AZT-DP to AZT-TP (KDP,TP) was also assumed to be 0.28 h^−1. The assumed distributions for the rate constants describing the cellular phosphorylation and dephosphorylation of AZT are contained in Table 2.

[4] = biological target: T2, thymidylate kinase (Homo sapiens, UniProt P23919); conditions: cited from earlier work; for Km: substrate AZT-MP, read-out: Km versus thymidylate kinase (Km,ThmK)
T2 sequence (P23919 1-212): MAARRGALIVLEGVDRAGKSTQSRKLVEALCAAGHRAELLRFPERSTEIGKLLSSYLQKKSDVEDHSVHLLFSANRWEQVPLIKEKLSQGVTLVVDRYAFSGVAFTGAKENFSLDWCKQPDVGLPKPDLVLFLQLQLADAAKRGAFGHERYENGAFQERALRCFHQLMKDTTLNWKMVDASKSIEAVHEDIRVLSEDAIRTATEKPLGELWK

[5] = test system: HIV; experiment: Randomized double blind placebo controlled study, HIV RNA viral load over 10 days of treatment; type: in vivo, human
Method: (§2) Subjects with HIV RNA viral load (VL)≧5,000 copies/mL were enrolled and randomized 1:1:1 to DAPD 500 mg bid: DAPD 500 mg with AZT 300 mg bid: DAPD 500 mg with AZT 200 mg bid for 10 days. In each arm, subjects were randomized 3:1 to DAPD: placebo. VL was determined daily.

[6] = biological target: T1, TK1; conditions: concentration at 50% of maximal metabolism rate; read-out: Km versus TK1; cited from earlier work
[7] = biological target: T2, thymidylate kinase; experiment: Phosphorylation of AZT-MP to AZT-DP by thymidylate kinase; type: biochemical; conditions: activated PBM cells of HIV-1 infected individuals not previously treated with AZT; SD of log-transformed values 0.89
Text: as §1

[8] = test system: PBM cells; conditions: cited from earlier work; for Rate of dephosphorylation: in vivo
[9] = single dose, intravenous and oral, HIV-1 infected individuals; cited from earlier work
[10] = biological target: wild-type HIV-1 reverse transcriptase (Human immunodeficiency virus type 1 group M subtype B, UniProt P03366); conditions: cited from earlier work
[11] = Tolerability in the DAPD/AZT clinical study; type: in vivo, human; conditions: 10 days of treatment, HIV-infected subjects
Method: as §2

[12] = cited from earlier work

Structure (SMILES): Cc1cn([C@H]2C[C@H](N=[N+]=[N-])[C@@H](CO)O2)c(=O)[nH]c1=O [AZT, 3′-azido-3′-deoxythymidine]
- Drug resistant mutations selected in vitro [1]: a mixture of K70K/R mutations at week 25
- Trend in decrease in hemoglobin from Baseline [2]: DAPD/AZT 300≧AZT 300≧DAPD/AZT 200>AZT 200>DAPD>placebo
- Trend in increase in MCV from Baseline [2]: DAPD/AZT 300>AZT 300>DAPD/AZT 200>AZT 200>placebo>DAPD
- Vmax,TK1, maximal rate of phosphorylation to AZT-MP [3]: 0.86 μmol/l per hr
- Km [4]: 12 µM
- Mean VL ± SD from baseline ([5]; Day 9, AZT 200 mg bid alone): −0.80 log10 copies/mL
- Mean VL ± SD from baseline ([5]; Day 9, AZT 300 mg bid alone): −0.35 log10 copies/mL
- Mean VL ± SD from baseline ([5]; Day 10, AZT 200 mg bid alone): −0.65 log10 copies/mL
- Mean VL ± SD from baseline ([5]; Day 10, AZT 300 mg bid alone): −0.45 log10 copies/mL
- Mean VL ± SD from baseline ([5]; Day 11, AZT 200 mg bid alone): −0.70 log10 copies/mL
- Mean VL ± SD from baseline ([5]; Day 11, AZT 300 mg bid alone): −0.60 log10 copies/mL
- Km [6]: 0.6 µM
- Vmax,ThymK, median [7]: 0.13 μmol/l per hr
- Accumulation of AZT nucleotides, stimulated versus resting PBM cells [8]: 60 to 150 times
- Rate of dephosphorylation [8]: 0.28 h⁻¹
- Systemic clearance (Cl) [9]: 18.3 to 25 mL/min/kg
- Volume of distribution (Vss) [9]: 1.3 to 1.4 L/kg

Structure (SMILES): Cc1cn([C@H]2C[C@H](N=[N+]=[N-])[C@@H](COP(=O)(O)OP(=O)(O)O)O2)c(=O)[nH]c1=O [AZT-DP, AZT-diphosphate]
- Rate of dephosphorylation [8]: 0.28 h⁻¹

Structure (SMILES): Cc1cn([C@H]2C[C@H](N=[N+]=[N-])[C@@H](COP(=O)(O)O)O2)c(=O)[nH]c1=O [AZT-MP, zidovudine-monophosphate]
- Km [4]: 12 µM
- Vmax,AZT-MP as share of the Vmax versus thymidine-MP ([4]; thymidylate kinase): 0.3%
- Vmax,ThymK, median [7]: 0.13 μmol/l per hr
- Rate of dephosphorylation [8]: 0.28 h⁻¹

Structure (SMILES): Cc1cn([C@H]2C[C@H](N=[N+]=[N-])[C@@H](CO[P@](=O)(O)O[P@](=O)(O)OP(=O)(O)O)O2)c(=O)[nH]c1=O [AZT-TP, zidovudine-triphosphate]
- IC50 [10]: ~35 nM
- Rate of dephosphorylation [8]: 0.28 h⁻¹

Structure (SMILES): Nc1nc(N)c2ncn([C@H]3CO[C@@H](CO)O3)c2n1 [DAPD, (−)-β-D-2,6-diaminopurine dioxolane]
- Drug resistant mutations selected in vitro [1]: a mixture of K65R and L74V at week 20
- Trend in decrease in hemoglobin from Baseline [2]: DAPD/AZT 300≧AZT 300≧DAPD/AZT 200>AZT 200>DAPD>placebo
- Trend in increase in MCV from Baseline [2]: DAPD/AZT 300>AZT 300>DAPD/AZT 200>AZT 200>placebo>DAPD
- Mean VL ± SD from baseline ([5]; Day 9, DAPD 500 mg bid alone): −0.83 ± 0.61 log10 copies/mL
- Mean VL ± SD from baseline ([5]; Day 10, DAPD 500 mg bid alone): −1.07 ± 0.80 log10 copies/mL
- Mean VL ± SD from baseline ([5]; Day 11, DAPD 500 mg bid alone): −1.03 ± 0.59 log10 copies/mL
- Tolerability [11]: well tolerated

Structure (SMILES): Nc1nc2c(ncn2[C@H]2CO[C@@H](CO)O2)c(=O)[nH]1 [DXG, beta-D-(2R,4R)-1,3-dioxolane guanosine]
- Cellular triphosphate half-life [12]: ~9.5 h

Structure (SMILES): C[C@H](Cn1cnc2c(N)ncnc21)OCP(=O)(O)O [tenofovir, 9-R-2-phosphonomethoxypropyl adenine]
- Cellular triphosphate half-life [12]: > 60 h

— patent US20110053884A1, “POTENT COMBINATIONS OF […] DRUGS THAT SELECT FOR THE K65R MUTATION IN THE HIV POLYMERASE” (priority 2007, published 2011)
